Test results reported in patent publication US20250011404A1, “TARGETING APOE ENHANCES T-CELL KILLING IN CANCER IMMUNOTHERAPY” (Children's National Medical Center, priority 2021, published 2025).
“Also recorded” adds a separate entry of the source.

How the values were obtained:
[1] = tested on: Mouse bone-marrow derived dendritic cells (DC); assay: Cytokine production of TLR7/8 activated bone-marrow derived dendritic cells, multiplex ELISA; type: cell-based; details: 48 hr
Procedure: Mouse bone-marrow derived dendritic cells (DC) were cultured in the presence of the indicated concentrations of apoE agonist COG133 for 48 hr. COG133 increased the production of anti-inflammatory IL-10, GM-CSF, and chemokines MCP-1 and MCP-3 by TLR7/8 activated DC while decreasing the levels of proinflammatory cytokines IL-1α, IL-1β and IL-23 in a dose-dependent manner as determined by multiplex ELISA.
(§1) Cell culture supernatant was collected after centrifuge at 1,200 rpm for 10 min at 4° C. The concentrations of the following immune molecules were determined using the mouse Cytokine & Chemokine 36-plex ProcartaPlex Panel, a magnetic bead-based multiplex immunoassay (Thermo Scientific) following our previous protocol(19). Briefly, cell culture supernatant samples were mixed with antibody-linked polystyrene beads on a 96-well plate and incubated at room temperature (RT) for 2 h on an orbital shaker at 500 rpm. After washing, plates were incubated with biotinylated detection antibody for 30 min at RT. Plates were then washed twice and then labeled beads were resuspended in streptavidin-PE. Each sample was measured in duplicate along with standards (8-point dilutions) and the buffer control. Plates were read using a Luminex Bio-plex 200 system (Bio-Rad Corp.) for quantitative analysis.

[2] = tested on: naïve C57/BL6 splenocytes co-cultured with immunogenic B16 tumor cells; assay: IFNγ ELISA, naïve splenocytes co-cultured with Myc-inhibited immunogenic B16 tumor cells; type: cell-based, mouse
Procedure: To further investigate the influence of tumor secreted apoE on immune cell function, immunogenic B16 tumor cells (B16 cells treated with Myc inhibitors (0.25 μM BET+0.25 μM JQ1 for 4 days) were irradiated at 60 Gray and co-cultured with naïve C57/BL6 splenocytes in the presence of either apoE mimetic COG133 at 0.3, 3 and 9 μM or anti-APOE blocking antibody at 1, 10 and 30 μg/ml concentrations. Prior work has shown the immunogenic effect of treating cancer cells with Myc inhibitors and irradiation. IFNγ production was quantified by ELISA at 48 h. Splenocytes produced high levels of IFNγ when co-cultured with Myc-inhibited immunogenic B16 cells as shown in FIGS. 3A-3C. Exposure of these cells to apoE mimetic COG133 repressed IFNγ production (6-fold reduction) (FIG. 3A), while the presence of Anti-APOE antibody enhanced IFNγ production (3-fold increase) (FIG. 3B). We also tested IFNγ production from vaccinated splenocytes following co-culture with treated and untreated B16 cells in the presence of COG 133. […] In addition to IFNγ, we also quantified other cytokine/chemokines using ProcartaPlex multiplex immunoassay. […]
WT and apoE^−/− mice or WT and lrp8^−/− mice, were inoculated with either WT B16 or apoE^−/− B16 cells, with anti-CTLA4 antibody on day 0. […] Readings were measured at 450 nm using the EnSpire 2300 Multilabel plate reader (Perkin Elmer, Waltham, Massachusetts, US).

[3] = tested on: splenocytes co-cultured with Myc-inhibited B16 tumor cells; assay: ProcartaPlex multiplex immunoassay of splenocyte/B16 co-cultures; type: cell-based, mouse
Procedure: To further investigate the influence of tumor secreted apoE on immune cell function, immunogenic B16 tumor cells (B16 cells treated with Myc inhibitors (0.25 μM BET+0.25 μM JQ1 for 4 days) were irradiated at 60 Gray and co-cultured with naïve C57/BL6 splenocytes in the presence of either apoE mimetic COG133 at 0.3, 3 and 9 μM or anti-APOE blocking antibody at 1, 10 and 30 μg/ml concentrations. Prior work has shown the immunogenic effect of treating cancer cells with Myc inhibitors and irradiation. IFNγ production was quantified by ELISA at 48 h. Splenocytes produced high levels of IFNγ when co-cultured with Myc-inhibited immunogenic B16 cells as shown in FIGS. 3A-3C. Exposure of these cells to apoE mimetic COG133 repressed IFNγ production (6-fold reduction) (FIG. 3A), while the presence of Anti-APOE antibody enhanced IFNγ production (3-fold increase) (FIG. 3B). We also tested IFNγ production from vaccinated splenocytes following co-culture with treated and untreated B16 cells in the presence of COG 133. To obtain vaccinated splenocytes, 10^4 WT B16 tumor cells and 100 μg/ml anti-CTLA4 antibody were administered to C57BL/6 mice on day 0, and splenocytes were collected at day 7 after tumor cell inoculation. Compared with naïve splenocytes, vaccinated splenocytes produced dramatically greater level of IFNγ, especially when they were co-cultured with Myc inhibited B16 tumor cells. […] In addition to IFNγ, we also quantified other cytokine/chemokines using ProcartaPlex multiplex immunoassay. […] Within these 14 cytokines, four of them including IFN[…], IL6, IL18 and RANTES (CCL5) were suppressed after exposure to apoE peptide mimetic COG133 in a dose dependent manner (FIG. 17).
as §1

## COG133: a fragment of apoE peptide, which competes with the apoE holoprotein for binding the LDL receptors and acts as an apoE mimetic
[1]; dose dependent
  IL-1α, IL-1β and IL-23 levels of activated DC: suppressed; also recorded: decreasing
  secretion of anti-inflammatory cytokine IL-10 from activated DC: induced secretion
[1]; indicated concentrations, multiplex ELISA (FIG. 16)
  production of IL-10, GM-CSF, MCP-1 and MCP-3 by TLR7/8 activated DC: increased
[2]; naïve and vaccinated splenocytes + BET/JQ1 treated B16 cells (FIG. 3A)
  splenocyte production of IFNγ in presence of COG133: markedly reduced
[2]; naïve splenocytes + Myc-inhibited irradiated B16 cells, COG133 at 0.3, 3 and 9 μM, ELISA at 48 h
  IFNγ production, reduction: 6 fold
[3]; co-culture with Myc-inhibited B16 cells 48 hr, multiplex immunoassay (FIG. 18)
  IL-13, IL-4, IL22, IL18, MCP-1, RANTES and Gro-α, WT vaccinated splenocytes: suppression
[3]; co-cultures with naïve splenocytes, 48 hr, multiplex ELISA (FIG. 17)
  production of IFNγ, IL-6 and IL-18, naïve splenocytes: suppressive effect
[3]; co-cultures with vaccinated splenocytes, 48 hr, multiplex ELISA (FIG. 17)
  production of IFNγ, IL-6 and IL-18, vaccinated splenocytes: diminished in vaccinated splenocytes is still observed
[3]; splenocytes + Myc-inhibited B16 cells, multiplex immunoassay, dose dependent manner
  IFNγ, IL6, IL18 and RANTES (CCL5) production: suppressed
